This is an account of results in patent US20240391882A1 (Mirati Therapeutics, Inc., priority 2023, published 2024).

Common to all, as to type: cell-based
Test [1] relates to T47D (PI3Kα H1047R mutant) cells. The test can be described thus: Cell viability (CellTiter-Glo 2.0) in T47D cells. The note with it: Homo sapiens, approximately 72 hours. Summed up:
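SKBR3 or T47D cells, 1000 per well, were seeded overnight and then exposed ~72 h at 37° C to 10 concentrations of compound, 1:4 dilutions from 10 μm. Viability read by CellTiter-Glo luminescence as percent of vehicle; IC50 from four-parameter variable-slope fit.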

Test [2] has as its system pAKT in T47D (PI3Kα H1047R mutant) cells. The test can be described thus: Inhibition of pAKT (alphaLISA Surefire Ultra AKT 1/2/3 pS473) in T47D cells. To be noted: Homo sapiens, read-out: T47D (H1047R) pAKT 24 hr (IC50). Summed up: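 Cells in HBSS were dosed from 10.4 μm (1:4 serial dilution, 10 concentrations) and incubated about 24 hours at 37° C, then lysed. pAKT S473 measured by alphaLISA after overnight bead incubation. Signal normalised to alpelisib (3.125 μm) and DMSO controls; IC50 from four-parameter fit.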

For test [3], the system named is SKBR3 (PI3Kα wild type) cells. Briefly: Cell viability (CellTiter-Glo 2.0) in SKBR3 cells. The note with it: Homo sapiens. The method, then:
This Example illustrates that representative compounds of the invention decrease the viability of cells.
The ability of a compound of Formula (I) to decrease the viability of cells was measured using CellTiter-Glo 2.0 (CTG) Luminescent Cell Viability Assay (#G9241) obtained from Promega (Madison, WI).
To prepare assay plates for viability assays, cells were trypsinized, resuspended in fresh media, and viable cells were counted utilizing trypan blue exclusion. T47D, SKBR3, or MKN1 cells were seeded at 1000 cells in 30 μl per well in a solid white flat bottom 384 cell culture plate (Perkin Elmer #6007680) and incubated at 37° C. overnight.
Assay day 1, cells were dosed using an Echo Liquid Handler (Beckman Coulter) with compounds at a 10 μm starting concentration and serially diluted (1:4) for a total of 10 concentrations. Cells were incubated for approximately 72 hours with the compounds (solubilized in DMSO) at 37° C. After 72 hours of treatment, cell plates were equilibrated to room temperature before adding 15 μl of CTG to each well, plates were then covered in aluminum foil to protect from light, incubated at room temperature for 30 minutes on a microtiter plate shaker, and luminescence readings were collected using a CLARIOstar microplate reader (BMG Labtech, Germany). Percent of vehicle control values were plotted as log(inhibitor) vs. response—Variable slope (four parameters) for curve fitting and IC50 values were determined using XLfit.
Background: Cellular ATP, detected with luciferase, serves as a proxy for viable cell number.

[4] abbreviates: T47D (PI3Kα H1047R mutant) cells, 24 hr compound incubation, alphaLISA pS473.
Where [5] appears, read: SK-BR-3, SKBR3 (PI3Kα wild type) cells, approximately 72 hours, CellTiter-Glo 2.0, read-out: SKBR3 (WT) Viability IC50.

SMILES strings stand for the structures. Like-named read-outs stand apart in the source and are kept apart here.

In the case of `Cc1cc([C@@H](C)Nc2ccccc2C(=O)O)c2nc(N3CCC(C)(C)CC3)c(C#N)nc2c1` [Example 61, (R)-2-((1-(2-cyano-3-(4,4-dimethylpiperidin-1-yl)-7-methylquinoxalin-5-yl)ethyl)amino)benzoic acid], the IC50 (commonly the concentration at which inhibition is half-maximal) in test [1] (T47D, 72 h) was 513 nM; in test [2] (setting [4]), 38.6 nM; in test [3] (setting [5]) it was > 10000 nM.

For the molecule `C[C@@H](Nc1ccc(Cl)nc1C(=O)O)c1cc(C(F)F)cc2nc(C#N)c(N3CCOCC3)nc12` [Example 231, (R)-6-chloro-3-((1-(2-cyano-7-(difluoromethyl)-3-morpholinoquinoxalin-5-yl)ethyl)amino)picolinic acid], the IC50 in test [1] (T47D, 72 h) was 25.8 nM; in test [2] (setting [4]) it was 1.3 nM; in test [3] (setting [5]), > 10000 nM.

In the case of `Cc1cc([C@@H](C)Nc2ccc(Cl)nc2C(=O)O)c2nc(N3CC(C)(C)C3)c(C#N)nc2c1` [Example 56, (R)-6-chloro-3-((1-(2-cyano-3-(3,3-dimethylazetidin-1-yl)-7-methylquinoxalin-5-yl)ethyl)amino)picolinic acid], the half-maximal inhibitory concentration (IC50) in test [1] (T47D, 72 h) was 128 nM; in test [2] (setting [4]), 4.7 nM; in test [3] (setting [5]), > 10000 nM.

Turning to `Cc1cc([C@@H](C)Nc2ccc(Cl)nc2C(=O)O)c2nc(N3CC4C[C@]4(C(F)(F)F)C3)c(C#N)nc2c1` (single isomer, unassigned) [Example 43B], the IC50 in test [1] (T47D, 72 h) was determined as 271 nM; in test [2] (setting [4]), 16.8 nM; in test [3] (setting [5]), 4030 nM.

As to `Cc1cc([C@@H](C)Nc2ccc(Cl)nc2C(=O)O)c2nc(N3CC4(CC(O)C4)C3)c(C#N)nc2c1` [Example 259, (R)-6-chloro-3-((1-(2-cyano-3-(6-hydroxy-2-azaspiro[3.3]heptan-2-yl)-7-methylquinoxalin-5-yl)ethyl)amino)picolinic acid], the IC50 is 75 nM in test [1] (T47D, 72 h); 1.5 nM in test [2] (setting [4]); > 10000 nM in test [3] (setting [5]).

For `Cc1cc([C@@H](C)Nc2ccc(Cl)nc2C(=O)O)c2nc(NCC3CC3)c(C#N)nc2c1` [Example 25, (R)-6-chloro-3-((1-(2-cyano-3-((cyclopropylmethyl)amino)-7-methylquinoxalin-5-yl)ethyl)amino)picolinic acid], the IC50 was 175 nM in test [1] (T47D, 72 h); 1.2 nM in test [2] (setting [4]); > 10000 nM in test [3] (setting [5]).

`Cc1cc([C@@H](C)Nc2ccc(Cl)nc2C(=O)O)c2nc(N3CC[C@]4(CCCO4)C3)c(C#N)nc2c1` (single isomer, unassigned) [Example 253B]: the IC50 in test [1] (T47D, 72 h) turned out to be 113 nM; in test [2] (setting [4]) it was 5.8 nM; in test [3] (setting [5]), 5140 nM.

Regarding `Cc1cc([C@@H](C)Nc2ccc(Cl)nc2C(=O)O)c2nc(N3C[C@H](C)OC[C@@H]3C)c(C#N)nc2c1` [Example 237B, 6-chloro-3-(((R)-1-(2-cyano-3-((2S,5S)-2,5-dimethylmorpholino)-7-methylquinoxalin-5-yl)ethyl)amino)picolinic acid], the 50% inhibitory concentration (IC50) in test [1] (T47D, 72 h) was determined as 152 nM; in test [2] (setting [4]) it was 6.1 nM; in test [3] (setting [5]), 3800 nM.

For `Cc1cc([C@@H](C)Nc2ccccc2C(=O)O)c2nc(N3Cc4ccccc4C3)c(C#N)nc2c1` [Example 6, (R)-2-((1-(2-cyano-3-(isoindolin-2-yl)-7-methylquinoxalin-5-yl)ethyl)amino)benzoic acid], the IC50 is 294 nM in test [1]; 5 nM in test [2] (T47D, 24 h); > 10000 nM in test [3] (SK-BR-3, 72 h, read-out: SKBR3 (WT) Viability IC50 (nM)).

On to `Cc1cc([C@@H](C)Nc2ccc(Cl)nc2C(=O)O)c2nc(N3C[C@@H]4C[C@H]3CC4(F)F)c(C#N)nc2c1` (single isomer, unassigned) [Example 8], for which the IC50 in test [1] (T47D, 72 h) was 34.1 nM; in test [2] (setting [4]), 7.7 nM; in test [3] (setting [5]), 3620 nM.

As to `Cc1cc([C@@H](C)Nc2ccc(Cl)nc2C(=O)O)c2nc(N3CCCC(C(F)(F)F)C3)c(C#N)nc2c1` (stereo partly drawn) [Example 45, 6-chloro-3-(((1R)-1-(2-cyano-7-methyl-3-(3-(trifluoromethyl)piperidin-1-yl)quinoxalin-5-yl)ethyl)amino)picolinic acid], the half-maximal inhibitory concentration (IC50) in test [1] (T47D, 72 h) was 115 nM; in test [2] (setting [4]), 6.8 nM; in test [3] (setting [5]) it was > 10000 nM.

On to `Cc1cc([C@@H](C)Nc2ccccc2C(=O)O)c2nc(NC[C@@]3(C)CC3(F)F)c(C#N)nc2c1` (single isomer, unassigned) [Example 75B], for which the IC50 is 720 nM in test [1] (T47D, 72 h); 39 nM in test [2] (setting [4]); > 10000 nM in test [3] (setting [5]).

For the molecule `Cc1cc([C@@H](C)Nc2ccc(Cl)nc2C(=O)O)c2nc(N3C[C@@H](C)OC[C@H]3C)c(C#N)nc2c1` [Example 237A, 6-chloro-3-(((R)-1-(2-cyano-3-((2R,5R)-2,5-dimethylmorpholino)-7-methylquinoxalin-5-yl)ethyl)amino)picolinic acid], the IC50 in test [1] (T47D, 72 h) was found to be 137 nM; in test [2] (setting [4]) it was 4.3 nM; in test [3] (setting [5]), 8170 nM.

Regarding `Cc1cc([C@@H](C)Nc2ccc(Cl)nc2C(=O)O)c2nc(N3CCC(F)(F)[C@H](CO)C3)c(C#N)nc2c1` (single isomer, unassigned) [Example 234B], the IC50 in test [1] (T47D, 72 h) is 85 nM; in test [2] (setting [4]) it was 3.6 nM; in test [3] (setting [5]), > 10000 nM.

Regarding `Cc1cc([C@@H](C)Nc2ccc(Cl)nc2C(=O)O)c2nc(N3CCO[C@@H]4C[C@@H]43)c(C#N)nc2c1` (single isomer, unassigned) [Example 239A], the IC50 in test [1] (T47D, 72 h) is 39 nM; in test [2] (setting [4]), 1 nM; in test [3] (setting [5]) it was > 10000 nM.

Regarding `Cc1cc([C@@H](C)Nc2ccc(Cl)nc2C(=O)O)c2nc(N3C[C@H]4CO[C@H](C4)C3)c(C#N)nc2c1` (single isomer, unassigned) [Example 243B], the IC50 in test [1] (T47D, 72 h) was 50 nM; in test [2] (setting [4]), 0.52 nM; in test [3] (setting [5]), > 10000 nM.

In the case of `C[C@@H](Nc1ccccc1C(=O)O)c1cc(Cl)cc2nc(C#N)c(N3CCC(F)(F)CC3)nc12` [Example 30, (R)-2-((1-(7-chloro-2-cyano-3-(4,4-difluoropiperidin-1-yl)quinoxalin-5-yl)ethyl)amino)benzoic acid], the IC50 in test [1] (T47D, 72 h) was 183 nM; in test [2] (setting [4]) it was 4.7 nM; in test [3] (setting [5]), > 10000 nM.

Consider `Cc1cc([C@@H](C)Nc2ccc(Cl)nc2C(=O)O)c2nc(N3CC4CS(=O)(=O)CC4C3)c(C#N)nc2c1` (stereo partly drawn) [Example 228, 6-chloro-3-(((1R)-1-(2-cyano-3-(2,2-dioxidotetrahydro-1H-thieno[3,4-c]pyrrol-5(3H)-yl)-7-methylquinoxalin-5-yl)ethyl)amino)picolinic acid], for which the IC50 in test [1] (T47D, 72 h) is 368 nM; in test [2] (setting [4]), 33.2 nM; in test [3] (setting [5]), > 10000 nM.

`COC[C@H]1CN(c2nc3c([C@@H](C)Nc4ccc(Cl)nc4C(=O)O)cc(C)cc3nc2C#N)CC1(F)F` (single isomer, unassigned) [Example 211B]: the IC50 came out at 2.7 nM in test [1] (T47D, 72 h); 2.6 nM in test [2] (setting [4]); 6800 nM in test [3] (setting [5]).

In the case of `C[C@@H](Nc1ccccc1C(=O)O)c1cc(C2CC2)cc2nc(C#N)c(N3CCC(F)(F)CC3)nc12` [Example 37, (R)-2-((1-(2-cyano-7-cyclopropyl-3-(4,4-difluoropiperidin-1-yl)quinoxalin-5-yl)ethyl)amino)benzoic acid], the IC50 is 588 nM in test [1] (T47D, 72 h); 94.6 nM in test [2] (setting [4]); > 10000 nM in test [3] (setting [5]).
